Laboratory results from patent publication US20110319392A1, “Thiazole Sulfonamide And Oxazole Sulfonamide Kinase Inhibitors” (priority 2009, published 2011).

Assays:
Type in all cases: cell-based, Human
SK-MEL-28 tumor cells = assay: Cell growth inhibition assay (CellTiter-Glo), SK-MEL-28; details: Homo sapiens, SK-MEL-28, 72 h; 3 days incubation
Outline: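 Cells plated at 500 cells/well in their growth media, dosed next day with nine-step 1:3 compound dilutions (final DMSO 0.2%), then incubated 3 days at 37° C, 5% CO2. Total ATP read by CellTiter-Glo luminescence as a surrogate for cell number; IC50 interpolated from 4-parameter fit versus DMSO controls.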

BT474 tumor cells = assay: Cell growth inhibition assay (CellTiter-Glo), BT474; details: Homo sapiens, BT-474, 72 h, 3 days incubation
HN5 tumor cells = assay: Cell growth inhibition assay (CellTiter-Glo), HN5; details: Homo sapiens, 72 h; 3 days incubation
Outline: (§1)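 Cells seeded at 500/well (HN5 and HT-29 in high-glucose DMEM/10% FBS; A375P F11s in RPMI/10% FBS with pyruvate; SK-MEL-3 in McCoy's 5A/15% FBS), then exposed next day to 1:3 serial compound dilutions (0.2% DMSO) for 3 days at 37° C. CellTiter-Glo luminescence measured ATP; IC50 derived by 4-parameter fit.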

SK-MEL-3 tumor cells = assay: Cell growth inhibition assay (CellTiter-Glo), SK-MEL-3; details: Homo sapiens, SK-MEL3
Outline: as §1

IC50 (SK-MEL-28 tumor cells) [nM]	IC50 (BT474 tumor cells) [nM]	IC50 (HN5 tumor cells) [nM]	IC50 (SK-MEL-3 tumor cells) [nM]	Compound
< 100	> 1000	> 1000	< 100	CCc1nc(-c2cccc(NS(=O)(=O)c3ccccc3)c2)c(-c2ccnc(Nc3ccc(N4CCN(C(C)=O)CC4)nc3)n2)s1 [Example 3, N-{3-[5-(2-{[6-(4-Acetyl-1-piperazinyl)-3-pyridinyl]amino}-4-pyrimidinyl)-2-ethyl-1,3-thiazol-4-yl]phenyl}benzenesulfonamide]
100 to 1000	> 1000	100 to 1000	100 to 1000	CCc1nc(-c2cccc(NS(=O)(=O)c3ccccc3)c2)c(-c2ccnc(Nc3ccc(N4CCOCC4)c(F)c3)n2)s1 [Example 4]
< 100	100 to 1000	100 to 1000	< 100	CCc1nc(-c2cccc(NS(=O)(=O)c3ccccc3)c2)c(-c2ccnc(Nc3ccc(OC)c(N4CCN(CCS(C)(=O)=O)CC4)c3)n2)s1 [Example 5, N-[3-(2-Ethyl-5-{2-[(4-(methyloxy)-3-{4-[2-(methylsulfonyl)ethyl]-1-piperazinyl}phenyl)amino]-4-pyrimidinyl}-1,3-thiazol-4-yl)phenyl]benzenesulfonamide]
< 100	> 1000	100 to 1000	< 100	CC(=O)N1CCc2cc(Nc3nccc(-c4sc(C(C)C)nc4-c4cccc(NS(=O)(=O)c5ccccc5)c4)n3)ccc21 [Example 71]
100 to 1000	> 1000	100 to 1000	< 100	CC(C)c1nc(-c2cccc(NS(=O)(=O)c3ccccc3)c2)c(-c2ccnc(Nc3ccc(CC4CCN(CCS(C)(=O)=O)CC4)c(F)c3)n2)s1 [Example 72]
< 100	> 1000	100 to 1000	< 100	CC(C)c1nc(-c2cccc(NS(=O)(=O)c3ccccc3)c2)c(-c2ccnc(Nc3ccc(F)c(N4CCN(CCS(C)(=O)=O)CC4)c3)n2)s1 [Example 73]
100 to 1000	> 1000	> 1000	100 to 1000	CC(C)c1nc(-c2cccc(NS(=O)(=O)c3ccccc3)c2)c(-c2ccnc(Nc3ccc(N4CCN(CCS(C)(=O)=O)CC4)c(F)c3F)n2)s1 [Example 74]
< 100	> 1000	> 1000	< 100	CC(C)c1nc(-c2cccc(NS(=O)(=O)c3c(F)cccc3F)c2)c(-c2ccnc(Nc3ccc(N4CCN(C(C)C)CC4)cc3O)n2)s1 [Example 78]
100 to 1000	> 1000	> 1000	100 to 1000	COc1cc(N2CCN(CCF)CC2)ccc1Nc1nccc(-c2sc(C(C)C)nc2-c2cccc(NS(=O)(=O)c3c(F)cccc3F)c2)n1 [Example 79]
< 100	> 1000	100 to 1000	< 100	CC(C)c1nc(-c2cccc(NS(=O)(=O)c3c(F)cccc3F)c2)c(-c2ccnc(Nc3ccc(N4CCN(CCO)CC4)nc3)n2)s1 [Example 80]
< 100	> 1000	100 to 1000	< 100	CC(C)c1nc(-c2cccc(NS(=O)(=O)c3c(F)cccc3F)c2)c(-c2ccnc(Nc3cccc(N4CCN(C)CC4)c3)n2)s1 [Example 81]
< 100	> 1000	100 to 1000	< 100	CC(C)c1nc(-c2cccc(NS(=O)(=O)c3c(F)cccc3F)c2)c(-c2ccnc(Nc3ccc(N4CCCNCC4)nc3)n2)s1 [Example 82]
100 to 1000	> 1000	100 to 1000	100 to 1000	CC(C)c1nc(-c2cc(F)cc(NS(=O)(=O)c3ccc(F)cc3)c2)c(-c2ccnc(Nc3ccc(N4CCOCC4)c(F)c3)n2)s1 [Example 83]
< 100	> 1000	100 to 1000	< 100	CC(C)c1nc(-c2cc(F)cc(NS(=O)(=O)c3c(F)cccc3F)c2)c(-c2ccnc(Nc3ccc(N4CCOCC4)nc3)n2)s1 [Example 84]
< 100		100 to 1000	< 100	CC(C)c1nc(-c2cc(F)cc(NS(=O)(=O)c3c(F)cccc3F)c2)c(-c2ccnc(Nc3ccc(N4CCOCC4)c(F)c3)n2)s1 [Example 85]
< 100	> 1000	> 1000	< 100	CC(C)c1nc(-c2cccc(NS(=O)(=O)c3c(F)cccc3F)c2)c(-c2ccnc(Nc3cc(F)c(N4CCN(CCS(C)(=O)=O)CC4)cc3F)n2)s1 [Example 87]
< 100	> 1000	100 to 1000	< 100	CC(C)c1nc(-c2cccc(NS(=O)(=O)c3c(F)cccc3F)c2)c(-c2ccnc(Nc3ccc(N4CCCN(CCS(C)(=O)=O)CC4)nc3)n2)s1 [Example 88]
< 100	> 1000	100 to 1000	< 100	CC(C)c1nc(-c2cccc(NS(=O)(=O)c3c(F)cccc3F)c2)c(-c2ccnc(Nc3ccc(N4CC[C@@H](O)C4)nc3)n2)s1 [Example 89]
< 100	> 1000	> 1000	100 to 1000	Cc1cc(N2CCC(N3CCCCC3)CC2)ccc1Nc1nccc(-c2sc(C(C)C)nc2-c2cccc(NS(=O)(=O)c3c(F)cccc3F)c2)n1 [Example 91]
100 to 1000	> 1000	100 to 1000	100 to 1000	CC(C)c1nc(-c2cccc(NS(=O)(=O)c3ccccc3)c2)c(-c2ccnc(Nc3ccc(N4CCOCC4)cn3)n2)s1 [Example 92]
100 to 1000	> 1000	> 1000	100 to 1000	C=C(C)c1nc(-c2cccc(NS(=O)(=O)c3c(F)cccc3F)c2)c(-c2ccnc(Nc3ccc(N4CCN(CCF)CC4)c(F)c3)n2)s1 [Example 93]
< 100	> 1000	100 to 1000	100 to 1000	CC(C)c1nc(-c2ccc(F)c(NS(=O)(=O)c3c(F)cccc3F)c2)c(-c2ccnc(Nc3ccc(N4CCN(CCS(C)(=O)=O)CC4)c(F)c3)n2)s1 [Example 95]
< 100	> 1000	100 to 1000	< 100	CC(=O)N1CCN(c2ccc(Nc3nccc(-c4sc(C(C)C)nc4-c4cccc(NS(=O)(=O)c5cc(F)ccc5F)c4)n3)cn2)CC1 [Example 96]
